Results as given in patent US20250316361A1, “SYSTEMS AND METHODS FOR ESTIMATING, FROM FOOD FREQUENCY QUESTIONNAIRE BASED NUTRIENTS INTAKE DATA, THE RELATIVE AMOUNTS OF FAECALIBACTERIUM PRAUSNITZII (FPRAU) IN THE GUT MICROBIOME ECOSYSTEM AND ASSOCIATED RECOMMENDATIONS TO IMPROVE FAECALIBACTERIUM PRAUSNITZII” (SOCIETE DES PRODUITS NESTLE S.A., priority 2021, published 2025).

How the values were obtained:
[1] = tested on: Faecalibacterium ASVs (ASV6); test: in vitro stool fermentation, 16S microbial rRNA gene sequencing of Faecalibacterium ASVs; assay type: cell-based, Faecalibacterium prausnitzii
Procedure: (§1) Stool samples were collected from a healthy adult donor under human study protocol. Upon the reception of the stool samples, small aliquots were prepared with storage buffer (PBS and 10% glycerol) and were stored at −80 degrees Celsius before use. For each experiment, 250 μL of stool aliquot was inoculated in a 10 mL Hungate tube filled with a minimal bacteria culture media under a strict anaerobic condition (Oxygen <3 ppm) inside of an anaerobic chamber. Different nutrients or nutrient combinations, shown in Table 1, were added to the culture media at time 0 and the tubes were incubated at 37 degrees Celsius for 24 or 48 hours. The growth of Faecalibacterium prausnitzii (F. prau) was examined by two methods: quantitative PCR specifically targeting F. prau and 16S microbial rRNA gene sequencing.
F. prau is heterogenic and genetically diverse. Thus, in this next experiment, we examined if nutrient or nutrient combinations favor specific F. prau to grow in a mixed community.

[2] = tested on: Faecalibacterium prausnitzii (F. prau); test: in vitro stool fermentation, quantitative PCR specifically targeting F. prau; assay type: cell-based; details: stool inoculum in minimal media, anaerobic, 37 degrees Celsius
Procedure: as §1
First, we examined the absolute quantity of F. prau in the community after 24 or 48 hours (FIGS. 6A and 6B).

inulin
response of Faecalibacterium ASV1, 6, 9, 12 and 13 ([1]; 14 genetically different Faecalibacterium found, time not stated): responded positively | response of F. prau ASV6 (figure legend) ([1]; samples collected after 24 hours and after 48 hours, FIG. 7): responded | absolute quantity of F. prau in the community versus control ([2]; 24 hours, FIG. 6A): at least twice as much as control | absolute quantity of F. prau in the community ([2]; 48 hours, FIG. 6B): able to maintain a high amount of F. prau
